Data as given in paper PMC5681660, “Reduced hepatitis B and D viral entry using clinically applied drugs as novel inhibitors of the bile acid transporter NTCP” (Scientific Reports, 2017).
Structures can show the parent of a compound that is named as a salt.

Biological target: T1, human NTCP (Homo sapiens, UniProt Q14973)
T1 sequence (Q14973 1-349): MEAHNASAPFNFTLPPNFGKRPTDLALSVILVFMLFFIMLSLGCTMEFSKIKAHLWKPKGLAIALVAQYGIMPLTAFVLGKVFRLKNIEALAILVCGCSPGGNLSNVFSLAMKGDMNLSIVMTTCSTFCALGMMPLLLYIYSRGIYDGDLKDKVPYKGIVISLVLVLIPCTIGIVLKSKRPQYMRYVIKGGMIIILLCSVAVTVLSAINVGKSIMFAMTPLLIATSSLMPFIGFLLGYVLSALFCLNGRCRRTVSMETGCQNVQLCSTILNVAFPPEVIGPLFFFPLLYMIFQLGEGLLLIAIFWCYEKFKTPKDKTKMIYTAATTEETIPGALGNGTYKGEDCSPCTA
Assay: Screening taurocholate uptake assay (96-well, [14C]taurocholate, 10 µM drug)
Settings: for B-score functional assay: screening taurocholate uptake, 10 µM drug

[1] = combined ranking of functional and binding screening assays
[2] = ranking over the functional and the binding screening assay

Molecule | Ranking score [1] | B-score functional assay | B-score functional assay (B-score) | Ranking score [2]
NC(=O)OCC(COC(N)=O)c1ccccc1 [Felbamate] | 558.78 | 0.213 | – | –
C#C[C@]1(O)CC[C@H]2[C@@H]3CCc4cc(OC)ccc4[C@H]3CC[C@@]21C [Ethynylestradiol 3-methyl ether] | 552.584 | -0.011 | – | –
COc1ccc(CCN)cc1OC [Homoveratrylamine] | 500.783 | 0.521 | – | –
CCN(CC)CCNC(=O)c1cc(Cl)c(N)cc1OC.Cl [Metoclopramide monohydrochloride] | 1141.61 | – | 0.859 | –
CCN(CC)CCc1nc(-c2ccccc2)no1.O=C(O)CC(O)(CC(=O)O)C(=O)O [Oxalamine citrate salt] | 587.786 | 0.505 | – | –
CCCCOc1ccc(C(=O)CCN2CCCCC2)cc1 [Dyclonine hydrochloride] | 591.312 | -0.08 | – | –
C[C@]12CC[C@@H]3c4ccc(OS(=O)(=O)O)cc4CC[C@H]3[C@@H]1CCC2=O [Estropipate] | – | -4.027 | – | 54.037
Nc1nc(Cl)nc2c1ncn2[C@H]1C[C@H](O)[C@@H](CO)O1 [Cladribine] | – | -0.011 | – | 277.042
NS(=O)(=O)c1cc(C(=O)O)c(NCc2ccco2)cc1Cl [Furosemide] | 1165.28 | – | 1.457 | –
CC(=O)Oc1ccccc1C(=O)O [Acetylsalicylic acid] | 1161.38 | – | 2.017 | –
C#C[C@]1(O)CC[C@H]2[C@@H]3CCc4cc(O)ccc4[C@H]3CC[C@@]21C [Ethinylestradiol] | – | -1.799 | – | 213.127
C[C@@H]1O[C@@H](O[C@@H]2C=C3CC[C@@H]4[C@H](CC[C@]5(C)[C@@H](c6ccc(=O)oc6)CC[C@]45O)[C@@]3(C)CC2)[C@H](O)[C@H](O)[C@H]1O [Proscillaridin A] | – | -2.06 | – | 183.761
CCCc1nc2c(C)cc(-c3nc4ccccc4n3C)cc2n1Cc1ccc(-c2ccccc2C(=O)O)cc1 [Telmisartan] | – | -4.106 | – | 165.804
OC(Cn1cncn1)(Cn1cncn1)c1ccc(F)cc1F [Fluconazole] | 553.146 | 1.083 | – | –
CN(C)CCCN1c2ccccc2Sc2ccc(Cl)cc21 [Chlorpromazine hydrochloride] | – | 1.542 | – | 173.367
N=C(N)c1ccc(OCCCCCOc2ccc(C(=N)N)cc2)cc1 [Pentamidine isethionate] | 489.028 | -0.233 | – | –
CCC(=O)OCC(=O)[C@@]1(OC(=O)CC)[C@@H](C)C[C@H]2[C@@H]3CCC4=CC(=O)C=C[C@]4(C)[C@@]3(Cl)[C@@H](O)C[C@@]21C [Beclomethasone dipropionate] | – | -3.95 | – | 123.665
NCCc1c[nH]cn1 [Histamine dihydrochloride] | 536.125 | 0.779 | – | –
CN(CCCN1c2ccccc2CCc2ccccc21)CC(=O)c1ccc(Cl)cc1 [Lofepramine] | 479.183 | 0.81 | – | –
CO/N=C(\C(=O)N[C@@H]1C(=O)N2C(C(=O)OC(C)OC(C)=O)=C(COC(N)=O)CS[C@H]12)c1ccco1 (stereo partly shown) [Cefuroxime axetil] | 621.898 | -0.317 | – | –
NC(=O)NC1NC(=O)NC1=O (stereo not shown) [Allantoin] | – | -2.549 | – | 134.967

Molecule | Ranking score [1] | B-score functional assay | B-score functional assay (B-score) | Ranking score [2]
CC(=O)Oc1ccc(C(c2ccc(OC(C)=O)cc2)c2ccccn2)cc1 [Bisacodyl] | – | -3.114 | – | 63
CC(=O)OCC(=O)[C@@]12OC3(CCCC3)O[C@@H]1C[C@H]1[C@@H]3CCC4=CC(=O)C=C[C@]4(C)[C@@]3(F)[C@@H](O)C[C@@]12C [Amcinonide] | 530.494 | 0.343 | – | –
CC=CC(=O)N(CC)c1ccccc1C (mixture of isomers) [Crotamiton] | – | -0.004 | – | 248.379
CCCCC[C@H](O)/C=C/[C@@H]1[C@@H](C/C=C\CCCC(=O)O)[C@@H](O)C[C@H]1O [Dinoprost trometamol] | 615.067 | 0.508 | – | –
CNCC(O)c1ccc(OC(=O)C(C)(C)C)c(OC(=O)C(C)(C)C)c1 (stereo not shown) [Dipivefrin hydrochloride] | 1200.98 | – | 1.926 | –
Cc1cc(CC(=O)[O-])n(C)c1C(=O)c1ccc(Cl)cc1.[Na+] [Zomepirac sodium salt] | 527.712 | -0.802 | – | –
O=c1[nH]c2ccccc2n1C1CCN(CCCC(c2ccc(F)cc2)c2ccc(F)cc2)CC1 [Pimozide] | – | -2.417 | – | 234.734
CN(C)C/C=C(\c1ccc(Br)cc1)c1cccnc1.Cl.Cl.O [Zimelidine dihydrochloride monohydrate] | – | -1.216 | – | 266.786
Verteporfin | – | -2.252 | – | 33.9116
C[N+]1(C)CCOC(O)(c2ccc(-c3ccc(C4(O)C[N+](C)(C)CCO4)cc3)cc2)C1.[Br-].[Br-] (stereo not shown) [Hemicholinium bromide] | – | -3 | – | 262.621
Clc1cccc(Cl)c1N=C1NCCN1 [Clonidine hydrochloride] | 587.566 | 0.689 | – | –
NS(=O)(=O)c1cc2c(cc1Cl)NCNS2(=O)=O [Hydrochlorothiazide] | 515.124 | 0.079 | – | –
N#CC(c1ccc(Cl)cc1)c1c(Cl)cc(-n2ncc(=O)[nH]c2=O)cc1Cl (stereo not shown) [Diclazuril] | – | -9.074 | – | 46.9894
CC(=O)O[C@]1(C(C)=O)CC[C@H]2[C@@H]3C=C(Cl)C4=CC(=O)CC[C@]4(C)[C@H]3CC[C@@]21C [Chlormadinone acetate] | – | -1.751 | – | 87.43
Nc1ccc(S(=O)(=O)Nc2ccc(Cl)nn2)cc1 [Sulfachloropyridazine] | 530.669 | 0.615 | – | –
NC(=O)N/N=C/c1ccc([N+](=O)[O-])o1 [Nitrofural] | 535.985 | 0.068 | – | –
CC[C@H]1OC(=O)[C@H](C)[C@@H](O[C@H]2C[C@@](C)(OC)[C@@H](O)[C@H](C)O2)[C@H](C)[C@@H](O[C@@H]2O[C@H](C)C[C@H](N(C)C)[C@H]2O)[C@](C)(O)C[C@@H](C)/C(=N\OCOCCOC)[C@H](C)[C@@H](O)[C@]1(C)O [Roxithromycin] | – | 1.396 | – | 275.763
CNc1ncnc2c1ncn2[C@@H]1O[C@H](CO)[C@@H](O)[C@H]1O [N6-methyladenosine] | 568.625 | 0.107 | – | –
OCCN1CCN(CCCN2c3ccccc3Sc3ccc(Cl)cc32)CC1 [Perphenazine] | – | -0.257 | – | 88.5268
Cc1ncc([N+](=O)[O-])n1CC(C)O (stereo not shown) [Secnidazole] | 548.521 | -0.391 | – | –
